Measurements reported in US6372297B1, “Wood preservative oxathiazines” (Uniroyal Chemical Company, Inc., priority 1993, dated 2002).
Where two headings read alike, the source gives them in different places.

How the values were obtained:
Pseudomonas aeruginosa = assay: Wood preservative efficacy against bacteria and yeasts, tryptose agar plates; format: cell-based; set-up: key: 0 = growth equal to control, 1 = growth inhibited, 2 = no growth; details: 100 ppm in tryptose agar
Protocol: (§1) Compositions were prepared by dissolving the compounds shown in Table 1 in 50% ethanol and further diluting with sterile distilled water. […] After cooling, the medium was inoculated with the bacteria listed below. After sufficient growth of the untreated cultures, the compounds were evaluated using the following rating system: 0=growth equal to control 1=inhibition of growth by the compound 2=no growth under the influence of the compound. In this Table, the higher numbers are the most preferred species. Pseudomonas aeruginosa (gram neg)

Mucor sp. = assay: Wood preservative efficacy against fungi, agar plate colony diameter; format: cell-based; details: 100 ppm, Table 6B
Protocol: (§2) Each plate was inoculated with a spore suspension or with a small piece of agar (1 mm) from the margin of an actively growing colony of the test fungus. The fungi employed are listed below. After incubation at 22° C. and 70% relative humidity during a period long enough to allow significant growth of untreated controls, the diameters of the fungus colonies were measured and scored using the following rating system: 0=free of fungal growth 1=25% of fungal growth compared to untreated 2=50% of fungal growth compared to untreated 3=75% of fungal growth compared to untreated 4=Growth equal to that of untreated The scores measured for wood preservation efficacy of the compounds of this invention are listed in Tables 6a and 6b. In these Tables, the lower numbers are the most preferred species. Mucor sp.

Enterobacter aerogenes = assay: Wood preservative efficacy against bacteria and yeasts, tryptose agar plates; format: cell-based; set-up: key: 0 = growth equal to control, 1 = inhibition, 2 = no growth
Protocol: as §1, with “Enterobacter aerogenes” for “Pseudomonas aeruginosa”

Pseudomonas alcaligenes = assay: as above; format: cell-based; set-up: key: 0 = growth equal to control, 1 = inhibition, 2 = no growth; details: 100 ppm in tryptose agar
Protocol: as §1, with “alcaligenes” for “aeruginosa”

Escherichia coli = assay: as above; format: cell-based; set-up: key: 0 = growth equal to control, 1 = growth inhibited, 2 = no growth
Protocol: as §1, with “Escherichia coli” for “Pseudomonas aeruginosa”, “[…])” for “neg)”

Streptomyces albus = assay: as above; format: cell-based; set-up: key: 0 = growth equal to control, 1 = inhibition, 2 = no growth
Protocol: as §1, with “Streptomyces albus” for “Pseudomonas aeruginosa”, “pos)” for “neg)”

Aspergillus flavus = assay: Wood preservative efficacy against fungi, agar plate colony diameter; format: cell-based; details: 10 ppm, Table 6B
Protocol: as §2, with “Aspergillus flavus” for “Mucor sp.”

Coriolus versicolor = assay: as above; format: cell-based; details: 10 ppm, Table 6B
Protocol: as §2, with “Coriolus versicolor” for “Mucor sp.”

Flavobacterium sp. = assay: Wood preservative efficacy against bacteria and yeasts, tryptose agar plates; format: cell-based; set-up: key: 0 = growth equal to control, 1 = growth inhibited, 2 = no growth
Protocol: as §1, with “Flavobacterium sp.” for “Pseudomonas aeruginosa”

Bacillus cereus mycoides = format: cell-based; set-up: scale not given here
Coniophora puteana = assay: Wood preservative efficacy against fungi, agar plate colony diameter; format: cell-based; set-up: key: 0 = no fungal growth, 1-3 = 25/50/75% of untreated, 4 = equal; details: 10 ppm, Table 6B
Protocol: as §2, with “Coniophora puteana (syn. C. cerebella)” for “Mucor sp.”

Chaetomium globosum = assay: as above; format: cell-based; details: 10 ppm, Table 6B
Protocol: as §2, with “Chaetomium globosum” for “Mucor sp.”

[1] = tested on: blue-stain fungi and molds; assay: Activity against blue-stain fungi and molds in a stick test (threshold concentrations); details: beech sticks, 22° C., 90% relative humidity
Protocol: Representative compounds of this invention were dissolved in 50% ethanol. Each compound was then diluted serially using 50% ethanol. […] After three (3) hours, the solutions containing the test compounds were poured off and the treated sticks were allowed to dry in a sterile laminar air flow. Each treated stick was then placed in a Petri dish which had been previously seeded with inoculum. Two drops of a test fungal or spore suspension were pipetted onto the upper surface of each treated stick. The Petri dishes containing the treated sticks were incubated at 22° C. and 90% relative humidity. The treated sticks were evaluated after there was sufficient growth of fungus on control sticks (i.e., untreated sticks) incubated in the same manner. The following score system was used: 0: Stick free of fungal/mold growth 1: Traces of fungal growth on the stick 2: Slight growth (5 to 25% of the surface covered with fungal growth) 3: Moderate growth (25 to 50% covered with fungal growth) 4. Vigorous to maximum fungal growth (more than 50% growth) […]

C[S+]1CCON=C1c1ccccc1 (stereo not shown) [Compound 17]
Score of bactericidal activity, P. aeruginosa (Pseudomonas aeruginosa): 0
Score of fungicidal activity, MUCOR SP (Mucor sp.): 4
Score of bactericidal activity, E. aerogenes (Enterobacter aerogenes; 10 ppm in tryptose agar): 0
Score of bactericidal activity, E. aerogenes (Enterobacter aerogenes; 100 ppm in tryptose agar): 0
Score of bactericidal activity, P. alcalgenes (Pseudomonas alcaligenes): 0
Score of bactericidal activity, E. Coli (Escherichia coli; 10 ppm in tryptose agar): 0
Score of bactericidal activity, E. Coli (Escherichia coli; 100 ppm in tryptose agar): 0
Score of bactericidal activity, S. albus (Streptomyces albus; 10 ppm in tryptose agar): 0
Score of bactericidal activity, S. albus (Streptomyces albus; 100 ppm in tryptose agar): 0
Score of fungicidal activity, A. FLAVUS (Aspergillus flavus): 4
Score of fungicidal activity, G. VERSICLOR (Coriolus versicolor): 4
Score of bactericidal activity, Flavobacter (Flavobacterium sp.; 10 ppm in tryptose agar): 0
Score of bactericidal activity, Flavobacter (Flavobacterium sp.; 100 ppm in tryptose agar): 0
Score of bactericidal activity, B. cereus mycoides (Bacillus cereus mycoides; 10 ppm in tryptose agar): 0
Score of bactericidal activity, B. cereus mycoides (Bacillus cereus mycoides; 100 ppm in tryptose agar): 0
Score of fungicidal activity, C. PUTEANA (Coniophora puteana): 4
Score of fungicidal activity, C. GLOBOSUM (Chaetomium globosum): 4

CC1C[S+]([O-])C(c2cccs2)=NO1 (stereo not shown) [Compound 50, 5,6-dihydro-6-methyl-3-(2-thienyl)-1,4,2-oxathiazine-4-oxide]
Threshold concentration (ppm), A. niger, score 0 ([1]; A. niger, minimum concentration to obtain score 0): 1000 ppm
Threshold concentration (ppm), A. niger, score 1-2 ([1]; A. niger, minimum concentration to obtain score 1-2): 250-500 ppm
Threshold concentration (ppm), Aureobasidium, score 0 ([1]; Aureobasidium, minimum concentration to obtain score 0): >1000 ppm
Threshold concentration (ppm), Aureobasidium, score 1-2 ([1]; Aureobasidium, minimum concentration to obtain score 1-2): 100-500 ppm
Threshold concentration (ppm), Sclerophoma, score 0 ([1]; Sclerophoma, minimum concentration to obtain score 0): 100 ppm
Threshold concentration (ppm), Sclerophoma, score 1-2 ([1]; Sclerophoma, minimum concentration to obtain score 1-2): 50-100 ppm
Threshold concentration (ppm), Trichoderma, score 0 ([1]; Trichoderma, minimum concentration to obtain score 0): 5000 ppm
Threshold concentration (ppm), Trichoderma, score 1-2 ([1]; Trichoderma, minimum concentration to obtain score 1-2): 1000-2500 ppm
melting point: 114 to 115 °C

CC1CSC(c2cccs2)=NO1 (stereo not shown) [Compound 52, 5,6-dihydro-6-methyl-3-(2-thienyl)-1,4,2-oxathiazine]
melting point: 70 to 72 °C

Clc1ccc(C2=NOCCS2)s1 [Compound 59, 3-(5-chloro-2-thienyl)-5,6-dihydro-1,4,2-oxathiazine]
melting point: 74 to 77 °C
